Test results published in ChEMBL document CHEMBL3580557, “Anti-inflammatory Terpenoids from the Leaves and Twigs of Dysoxylum gotadhora” (J Nat Prod, 2015).
pIC50: −log10 of the molar value.

Columns and labels:
[1] = test system: RAW264.7; experiment: Antiinflammatory activity in mouse RAW264.7 cells assessed as inhibition of LPS-induced nitric oxide production at 25 uM after 24 hrs by Griess assay relative to control; type: functional; conditions: RAW264.7, 24 h
[2] = test system: RAW264.7; experiment: Cytotoxicity against mouse RAW264.7 cells assessed as cell viability after 16 hrs by MTT assay; type: cell-based; conditions: raw264.7, 16 h
[3] = test system: RAW264.7; experiment: Antiinflammatory activity in mouse RAW264.7 cells assessed as inhibition of LPS-induced nitric oxide production after 24 hrs by Griess assay; type: functional, cell-based; conditions: RAW264.7, 24 h
[4] = test system: RAW264.7; experiment: Antiinflammatory activity in mouse RAW264.7 cells assessed as inhibition of LPS-induced nitric oxide production at 50 uM after 24 hrs by Griess assay relative to control; type: functional; conditions: RAW264.7, 24 h
[5] = test system: RAW264.7; experiment: Antiinflammatory activity in mouse RAW264.7 cells assessed as inhibition of LPS-induced nitric oxide production at 12.5 uM after 24 hrs by Griess assay relative to control; type: functional; conditions: RAW264.7, 24 h
[6] = test system: RAW264.7; experiment: Antiinflammatory activity in mouse RAW264.7 cells assessed as inhibition of LPS-induced nitric oxide production at 3.1 uM after 24 hrs by Griess assay relative to control; type: functional; conditions: RAW264.7, 24 h
[7] = test system: RAW264.7; experiment: Antiinflammatory activity in mouse RAW264.7 cells assessed as inhibition of LPS-induced nitric oxide production at 6.3 uM after 24 hrs by Griess assay relative to control; type: functional; conditions: RAW264.7, 24 h

| pIC50 [3] | SMILES | inhibition at 25 µM [1] | Activity [2] | inhibition at 50 µM [4] | inhibition at 12.5 µM [5] | inhibition at 3.1 µM [6] | inhibition at 6.3 µM [7] |
| --- | --- | --- | --- | --- | --- | --- | --- |
| 4.59 | CC(C)(O)[C@H]1OC[C@@H]([C@H]2CC[C@@]3(C)[C@@H]4CC[C@H]5C(C)(C)C(=O)CC[C@@]56C[C@@]46CC[C@]23C)C[C@@H]1O | 49% | Non-toxic | 76.2% | 23.2% | 12.5% | 18.5% |
| 4.38 | CC1(C)OC[C@@H]([C@H]2CC[C@@]3(C)[C@@H]4CC[C@H]5C(C)(C)C(=O)CC[C@@]56C[C@@]46CC[C@]23C)C[C@@H](O)[C@@H]1O | 28.3% | Non-toxic | 58.9% | 13.5% | 11.3% | 4.5% |
| 4.56 | C[C@H](C[C@@H](O)[C@H](O)C(C)(C)O)[C@H]1CC[C@@]2(C)[C@@H]3CC[C@H]4C(C)(C)C(=O)CC[C@@]45C[C@@]35CC[C@]12C | 48.5% | Non-toxic | 79.1% | 23.8% | 12.8% | 17.9% |
| 4.84 | C=C[C@@]1(C)CC(=O)[C@H]2[C@@H](CC[C@H]3C(C)(C)[C@@H](O)CC[C@]23C)C1 | 63.8% | Non-toxic | 92.4% | 41.5% | 19.8% | 25.6% |
| 4.34 | COC(=O)/C=C(\C)CC[C@@]1(C)[C@H](C)CC[C@@]2(C)C(C)=CC(=O)C[C@H]12 | 35.3% | Non-toxic | 56.6% | 24.8% | 19.4% | 19.9% |
| – | COc1ccc2c(c1)c(CC(=O)O)c(C)n2C(=O)c1ccc(Cl)cc1 [INDOMETHACIN] | 44.3% | – | 57.9% | 38.5% | 21.5% | 24.5% |
